In paper PMC3523469 (Investigational New Drugs, 2012):
Where two headings read alike, the source gives them in different places.

Type: in vivo, Japanese patients

Structure (SMILES): COc1cc2ncnc(Nc3ccc(F)c(Cl)c3)c2cc1NC(=O)/C=C/CN1CCCCC1 [dacomitinib, Dacomitinib]
- Nausea, number of patients with treatment-related AE (15 mg QD (n = 3), G3): 0
- Palmar–plantar erythrodysesthesia, number of patients with treatment-related AE (15 mg QD (n = 3), G3): 0
- Paronychia, number of patients with treatment-related AE (15 mg QD (n = 3), G3): 0
- Proteinuria, number of patients with treatment-related AE (15 mg QD (n = 3), G3): 0
- Rash, number of patients with treatment-related AE (15 mg QD (n = 3), G3): 0
- Skin fissures, number of patients with treatment-related AE (15 mg QD (n = 3), G3): 0
- Stomatitis, number of patients with treatment-related AE (15 mg QD (n = 3), G3): 0
- Weight decreased, number of patients with treatment-related AE (15 mg QD (n = 3), G3): 0
- Alanine aminotransferase increased, number of patients with treatment-related AE (30 mg QD (n = 3), All): 0
- Aspartate aminotransferase increased, number of patients with treatment-related AE (30 mg QD (n = 3), All): 0
- Blood bilirubin increased, number of patients with treatment-related AE (30 mg QD (n = 3), All): 0
- Cheilitis, number of patients with treatment-related AE (30 mg QD (n = 3), All): 1
- Conjunctivitis, number of patients with treatment-related AE (30 mg QD (n = 3), All): 1
- Decreased appetite, number of patients with treatment-related AE (30 mg QD (n = 3), All): 1
- Diarrhea, number of patients with treatment-related AE (30 mg QD (n = 3), All): 3
- Dry skin, number of patients with treatment-related AE (30 mg QD (n = 3), All): 1
- ECG QT prolonged, number of patients with treatment-related AE (30 mg QD (n = 3), All): 0
- Edema, number of patients with treatment-related AE (30 mg QD (n = 3), All): 0
- Fatigue, number of patients with treatment-related AE (30 mg QD (n = 3), All): 1
- Hematuria, number of patients with treatment-related AE (30 mg QD (n = 3), All): 0
- Hypertrichosis, number of patients with treatment-related AE (30 mg QD (n = 3), All): 0
- Leukopenia, number of patients with treatment-related AE (30 mg QD (n = 3), All): 0
- Nausea, number of patients with treatment-related AE (30 mg QD (n = 3), All): 1
- Palmar–plantar erythrodysesthesia, number of patients with treatment-related AE (30 mg QD (n = 3), All): 2
- Paronychia, number of patients with treatment-related AE (30 mg QD (n = 3), All): 2
- Proteinuria, number of patients with treatment-related AE (30 mg QD (n = 3), All): 0
- Rash, number of patients with treatment-related AE (30 mg QD (n = 3), All): 3
- Skin fissures, number of patients with treatment-related AE (30 mg QD (n = 3), All): 0
- Stomatitis, number of patients with treatment-related AE (30 mg QD (n = 3), All): 2
- Weight decreased, number of patients with treatment-related AE (30 mg QD (n = 3), All): 1
- Alanine aminotransferase increased, number of patients with treatment-related AE (30 mg QD (n = 3), G1): 0
- Aspartate aminotransferase increased, number of patients with treatment-related AE (30 mg QD (n = 3), G1): 0
- Blood bilirubin increased, number of patients with treatment-related AE (30 mg QD (n = 3), G1): 0
- Cheilitis, number of patients with treatment-related AE (30 mg QD (n = 3), G1): 1
- Conjunctivitis, number of patients with treatment-related AE (30 mg QD (n = 3), G1): 1
- Decreased appetite, number of patients with treatment-related AE (30 mg QD (n = 3), G1): 0
- Diarrhea, number of patients with treatment-related AE (30 mg QD (n = 3), G1): 3
- Dry skin, number of patients with treatment-related AE (30 mg QD (n = 3), G1): 0
- ECG QT prolonged, number of patients with treatment-related AE (30 mg QD (n = 3), G1): 0
- Edema, number of patients with treatment-related AE (30 mg QD (n = 3), G1): 0
- Fatigue, number of patients with treatment-related AE (30 mg QD (n = 3), G1): 0
- Hematuria, number of patients with treatment-related AE (30 mg QD (n = 3), G1): 0
- Hypertrichosis, number of patients with treatment-related AE (30 mg QD (n = 3), G1): 0
- Leukopenia, number of patients with treatment-related AE (30 mg QD (n = 3), G1): 0
- Nausea, number of patients with treatment-related AE (30 mg QD (n = 3), G1): 1
- Palmar–plantar erythrodysesthesia, number of patients with treatment-related AE (30 mg QD (n = 3), G1): 0
- Paronychia, number of patients with treatment-related AE (30 mg QD (n = 3), G1): 0
- Proteinuria, number of patients with treatment-related AE (30 mg QD (n = 3), G1): 0
- Rash, number of patients with treatment-related AE (30 mg QD (n = 3), G1): 1
- Skin fissures, number of patients with treatment-related AE (30 mg QD (n = 3), G1): 0
- Stomatitis, number of patients with treatment-related AE (30 mg QD (n = 3), G1): 1
- Weight decreased, number of patients with treatment-related AE (30 mg QD (n = 3), G1): 0
- Alanine aminotransferase increased, number of patients with treatment-related AE (30 mg QD (n = 3), G2): 0
- Aspartate aminotransferase increased, number of patients with treatment-related AE (30 mg QD (n = 3), G2): 0
- Blood bilirubin increased, number of patients with treatment-related AE (30 mg QD (n = 3), G2): 0
- Cheilitis, number of patients with treatment-related AE (30 mg QD (n = 3), G2): 0
- Conjunctivitis, number of patients with treatment-related AE (30 mg QD (n = 3), G2): 0
- Decreased appetite, number of patients with treatment-related AE (30 mg QD (n = 3), G2): 1
- Diarrhea, number of patients with treatment-related AE (30 mg QD (n = 3), G2): 0
- Dry skin, number of patients with treatment-related AE (30 mg QD (n = 3), G2): 1
- ECG QT prolonged, number of patients with treatment-related AE (30 mg QD (n = 3), G2): 0
- Edema, number of patients with treatment-related AE (30 mg QD (n = 3), G2): 0
- Fatigue, number of patients with treatment-related AE (30 mg QD (n = 3), G2): 1
- Hematuria, number of patients with treatment-related AE (30 mg QD (n = 3), G2): 0
- Hypertrichosis, number of patients with treatment-related AE (30 mg QD (n = 3), G2): 0
- Leukopenia, number of patients with treatment-related AE (30 mg QD (n = 3), G2): 0
- Nausea, number of patients with treatment-related AE (30 mg QD (n = 3), G2): 0
- Palmar–plantar erythrodysesthesia, number of patients with treatment-related AE (30 mg QD (n = 3), G2): 2
- Paronychia, number of patients with treatment-related AE (30 mg QD (n = 3), G2): 2
- Proteinuria, number of patients with treatment-related AE (30 mg QD (n = 3), G2): 0
- Rash, number of patients with treatment-related AE (30 mg QD (n = 3), G2): 2
- Skin fissures, number of patients with treatment-related AE (30 mg QD (n = 3), G2): 0
- Stomatitis, number of patients with treatment-related AE (30 mg QD (n = 3), G2): 1
- Weight decreased, number of patients with treatment-related AE (30 mg QD (n = 3), G2): 1
- Alanine aminotransferase increased, number of patients with treatment-related AE (30 mg QD (n = 3), G3): 0
- Aspartate aminotransferase increased, number of patients with treatment-related AE (30 mg QD (n = 3), G3): 0
- Blood bilirubin increased, number of patients with treatment-related AE (30 mg QD (n = 3), G3): 0
- Cheilitis, number of patients with treatment-related AE (30 mg QD (n = 3), G3): 0
- Conjunctivitis, number of patients with treatment-related AE (30 mg QD (n = 3), G3): 0
- Decreased appetite, number of patients with treatment-related AE (30 mg QD (n = 3), G3): 0
- Diarrhea, number of patients with treatment-related AE (30 mg QD (n = 3), G3): 0
